Results as given in patent US10131652B2, “Pyrimidinyloxy benzene derivatives as herbicides” (E. I. DU PONT DE NEMOURS AND COMPANY, priority 2014, dated 2018).
Read-outs that look alike come from different tables or passages of the source.

Tests used:
Assay type in all cases: in vivo
[1] = system: chickweed (common chickweed, Stellaria media); experiment: Test D postemergence plant response; conditions: for pest or weed control at 31 g/ha: 31 g ai/ha; for pest or weed control at 62 g/ha: 62 g ai/ha
Description: (§1) At the same time, plants selected from these crop and weed species and also kochia (Kochia scoparia), wild oat (Avena fatua), and chickweed (common chickweed, Stellaria media) were planted in pots containing Redi-Earth® planting medium (Scotts Company, 14111 Scottslawn Road, Marysville, Ohio 43041) comprising spaghnum peat moss, vermiculite, wetting agent and starter nutrients and treated with postemergence applications of test chemicals formulated in the same manner. Plants ranged in height from 2 to 18 cm (1- to 4-leaf stage) for postemergence treatments. Treated plants and controls were maintained in a greenhouse for 13 to 15 days, after which time all species were compared to controls and visually evaluated. Plant response ratings, summarized in Table D, are based on a scale of 0 to 100 where 0 is no effect and 100 is complete control. A dash (-) response means no test result.

kochia (Kochia scoparia) = experiment: Test D postemergence plant response; conditions: for pest or weed control at 31 g/ha: 31 g ai/ha; for pest or weed control at 62 g/ha: 62 g ai/ha
Description: as §1

wild oat (Avena fatua) = experiment: Test D postemergence plant response; conditions: for pest or weed control at 31 g/ha: 31 g ai/ha; for pest or weed control at 62 g/ha: 62 g ai/ha
Description: as §1

rice (Oryza sativa) = experiment: Test C flooded paddy test plant response; conditions: Oryza sativa; Flood, 250 g ai/ha; scale of 0 to 100 where 0 is no effect and 100 is complete control; 13 to 15 days; read-out: Rice plant response rating
Summary of the method: (§2)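 Readout is a visual 0–100 score (100 = complete control) versus controls at 13–15 days. Plants at 2-leaf stage, flooded to 3 cm, treated through paddy water.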

[2] = system: ducksalad (Heteranthera limosa); experiment: Test C flooded paddy test plant response; conditions: Heteranthera limosa; Flood, 250 g ai/ha; scale of 0 to 100 where 0 is no effect and 100 is complete control; 13 to 15 days; read-out: Ducksalad plant response rating
Summary of the method: as §2

[3] = system: small-flower umbrella sedge (Cyperus difformis); experiment: Test C flooded paddy test plant response; conditions: Cyperus difformis; Flood, 250 g ai/ha; scale of 0 to 100 where 0 is no effect and 100 is complete control; 13 to 15 days; read-out: Sedge, Umbrella plant response rating
Summary of the method: as §2

[4] = system: barnyardgrass (Echinochloa crus-galli); experiment: Test C flooded paddy test plant response; conditions: Echinochloa crus-galli; Flood, 250 g ai/ha; scale of 0 to 100 where 0 is no effect and 100 is complete control; 13 to 15 days; read-out: Barnyardgrass plant response rating
Summary of the method: as §2

corn (Zea mays) = experiment: Test B pre-/postemergence plant response; conditions: Zea mays, 240 h; for Corn plant response rating (crop injury, 0 = no effect, 100 = complete kill) at 1000 g/ha: 1000 g ai/ha; for Corn plant response rating (crop injury, 0 = no effect, 100 = complete kill) at 125 g/ha: 125 g ai/ha; for Corn plant response rating (crop injury, 0 = no effect, 100 = complete kill) at 500 g/ha: 500 g ai/ha
Summary of the method: (§3)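 Visual injury scores on a 0–100 scale (100 = complete control) relative to untreated plants, taken about 10 days post-treatment in greenhouse. Treatments were a directed preemergence soil spray and a postemergence spray at one- to two-leaf stage, using surfactant-containing solvent formulation.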

[5] = system: giant foxtail (Setaria faberii); experiment: Test B pre-/postemergence plant response; conditions: Setaria faberi, 240 h, read-out: Plant response rating, Foxtail, Giant; for pest or weed control at 1000 g/ha: 1000 g ai/ha; for pest or weed control at 125 g/ha: 125 g ai/ha; for pest or weed control at 500 g/ha: 500 g ai/ha
Summary of the method: as §3

[6] = system: wheat (Triticum aestivum); experiment: Test B pre-/postemergence plant response; conditions: Triticum aestivum, 240 h, read-out: Plant response rating, Wheat; for plant injury at 1000 g/ha: 1000 g ai/ha; for plant injury at 125 g/ha: 125 g ai/ha; for plant injury at 500 g/ha: 500 g ai/ha
Summary of the method: as §3

[7] = system: barnyardgrass (Echinochloa crus-galli); experiment: Test B pre-/postemergence plant response; conditions: Echinochloa crus-galli, 240 h, read-out: Plant response rating, Barnyardgrass; for pest or weed control at 1000 g/ha: 1000 g ai/ha; for pest or weed control at 125 g/ha: 125 g ai/ha; for pest or weed control at 500 g/ha: 500 g ai/ha
Summary of the method: as §3

[8] = system: pigweed (Amaranthus retroflexus); experiment: Test B pre-/postemergence plant response; conditions: Amaranthus retroflexus, 240 h, read-out: Plant response rating, Pigweed; for pest or weed control at 1000 g/ha: 1000 g ai/ha; for pest or weed control at 125 g/ha: 125 g ai/ha; for pest or weed control at 500 g/ha: 500 g ai/ha
Summary of the method: as §3

[9] = Stellaria media, post-emergence, scale 0 to 100 (0 no effect, 100 complete control), read-out: Chickweed plant response rating
[10] = Stellaria media, post-emergence, scale 0 to 100, 0 no effect, 100 complete control, read-out: Plant response rating, Chickweed
[11] = Bassia scoparia, post-emergence, scale 0 to 100 (0 no effect, 100 complete control), read-out: Kochia plant response rating
[12] = Bassia scoparia, post-emergence, scale 0 to 100, 0 no effect, 100 complete control, read-out: Plant response rating, Kochia
[13] = Avena fatua, post-emergence, scale 0 to 100 (0 no effect, 100 complete control), read-out: Oat, Wild plant response rating
[14] = Avena fatua, post-emergence, scale 0 to 100, 0 no effect, 100 complete control, read-out: Plant response rating, Oat, Wild
[15] = post-emergence, Postemergence, 0 to 100 scale (0 no effect, 100 complete control)
[16] = pre-emergence, Preemergence, 0 to 100 scale (0 no effect, 100 complete control)
[17] = post-emergence, postemergence, 0 to 100 scale, 0 no effect, 100 complete control
[18] = pre-emergence, Preemergence, 0 to 100 scale where 0 is no effect and 100 is complete control

FC(F)c1cc(-c2ccccc2Oc2ncc(Cl)cn2)no1 [Compound 35, 5-chloro-2-[2-[5-(difluoromethyl)-3-isoxazolyl]phenoxy]pyrimidine]
Plant response rating (scale 0 to 100), Chickweed ([1]; 8 g ai/ha): 50 | pest or weed control at 16 g/ha ([1]; Stellaria media, post-emergence, 16 g ai/ha, scale 0 to 100 (0 no effect, 100 complete control), read-out: Chickweed plant response rating): 85% | pest or weed control at 31 g/ha [1, 9]: 85% | pest or weed control at 62 g/ha [1, 10]: 100% | Plant response rating (scale 0 to 100), Kochia (kochia (Kochia scoparia); 8 g ai/ha): 95 | pest or weed control at 16 g/ha (kochia (Kochia scoparia); Bassia scoparia, post-emergence, 16 g ai/ha, scale 0 to 100 (0 no effect, 100 complete control), read-out: Kochia plant response rating): 100% | pest or weed control at 31 g/ha (kochia (Kochia scoparia); [11]): 100% | pest or weed control at 62 g/ha (kochia (Kochia scoparia); [12]): 100% | Plant response rating (scale 0 to 100), Oat, Wild (wild oat (Avena fatua); 8 g ai/ha): 5 | pest or weed control at 16 g/ha (wild oat (Avena fatua); Avena fatua, post-emergence, 16 g ai/ha, scale 0 to 100 (0 no effect, 100 complete control), read-out: Oat, Wild plant response rating): 10% | pest or weed control at 31 g/ha (wild oat (Avena fatua); [13]): 40% | pest or weed control at 62 g/ha (wild oat (Avena fatua); [14]): 45% | plant injury at 250 g/ha (rice (Oryza sativa)): 80% | pest or weed control at 250 g/ha [2]: 100% | pest or weed control at 250 g/ha [3]: 100% | pest or weed control at 250 g/ha [4]: 65% | Corn plant response rating (crop injury, 0 = no effect, 100 = complete kill) at 1000 g/ha (corn (Zea mays); [15]): 90% | Corn plant response rating (crop injury, 0 = no effect, 100 = complete kill) at 1000 g/ha (corn (Zea mays); [16]): 30% | pest or weed control at 1000 g/ha [5, 15]: 90% | pest or weed control at 1000 g/ha [5, 16]: 100% | plant injury at 1000 g/ha [6, 15]: 80% | plant injury at 1000 g/ha [6, 16]: 60% | pest or weed control at 1000 g/ha [7, 15]: 100% | pest or weed control at 1000 g/ha [7, 16]: 100% | pest or weed control at 1000 g/ha [8, 15]: 100% | pest or weed control at 1000 g/ha [8, 16]: 10%

FC(F)c1cc(-c2ccccc2Oc2ncc(Br)cn2)no1 [Compound 62, 5-bromo-2-[2-[5-(difluoromethyl)-3-isoxazolyl]phenoxy]pyrimidine]
pest or weed control at 31 g/ha [1, 9]: 70% | pest or weed control at 62 g/ha [1, 10]: 95% | pest or weed control at 125 g/ha ([1]; Stellaria media, post-emergence, 125 g ai/ha, scale 0 to 100, 0 no effect, 100 complete control, read-out: Plant response rating, Chickweed): 98% | pest or weed control at 250 g/ha ([1]; Stellaria media, post-emergence, 250 g ai/ha, scale 0 to 100, 0 no effect, 100 complete control, read-out: Plant response rating, Chickweed): 100% | pest or weed control at 31 g/ha (kochia (Kochia scoparia); [11]): 98% | pest or weed control at 62 g/ha (kochia (Kochia scoparia); [12]): 100% | pest or weed control at 125 g/ha (kochia (Kochia scoparia); Bassia scoparia, post-emergence, 125 g ai/ha, scale 0 to 100, 0 no effect, 100 complete control, read-out: Plant response rating, Kochia): 100% | pest or weed control at 250 g/ha (kochia (Kochia scoparia); Bassia scoparia, post-emergence, 250 g ai/ha, scale 0 to 100, 0 no effect, 100 complete control, read-out: Plant response rating, Kochia): 100% | pest or weed control at 31 g/ha (wild oat (Avena fatua); [13]): 30% | pest or weed control at 62 g/ha (wild oat (Avena fatua); [14]): 40% | pest or weed control at 125 g/ha (wild oat (Avena fatua); Avena fatua, post-emergence, 125 g ai/ha, scale 0 to 100, 0 no effect, 100 complete control, read-out: Plant response rating, Oat, Wild): 50% | pest or weed control at 250 g/ha (wild oat (Avena fatua); Avena fatua, post-emergence, 250 g ai/ha, scale 0 to 100, 0 no effect, 100 complete control, read-out: Plant response rating, Oat, Wild): 60% | plant injury at 250 g/ha (rice (Oryza sativa)): 40% | pest or weed control at 250 g/ha [2]: 100% | pest or weed control at 250 g/ha [3]: 90% | pest or weed control at 250 g/ha [4]: 35% | Corn plant response rating (crop injury, 0 = no effect, 100 = complete kill) at 125 g/ha (corn (Zea mays); [17]): 10% | Corn plant response rating (crop injury, 0 = no effect, 100 = complete kill) at 500 g/ha (corn (Zea mays); [15]): 50% | Corn plant response rating (crop injury, 0 = no effect, 100 = complete kill) at 125 g/ha (corn (Zea mays); [18]): 0% | Corn plant response rating (crop injury, 0 = no effect, 100 = complete kill) at 500 g/ha (corn (Zea mays); [18]): 20% | pest or weed control at 125 g/ha [5, 17]: 80% | pest or weed control at 500 g/ha [5, 15]: 90% | pest or weed control at 125 g/ha [5, 18]: 100% | pest or weed control at 500 g/ha [5, 18]: 100% | plant injury at 125 g/ha [6, 17]: 0% | plant injury at 500 g/ha [6, 15]: 30% | plant injury at 125 g/ha [6, 18]: 20% | plant injury at 500 g/ha [6, 18]: 30% | pest or weed control at 125 g/ha [7, 17]: 90% | pest or weed control at 500 g/ha [7, 15]: 100% | pest or weed control at 125 g/ha [7, 18]: 80% | pest or weed control at 500 g/ha [7, 18]: 100% | pest or weed control at 125 g/ha [8, 17]: 100% | pest or weed control at 500 g/ha [8, 15]: 100% | pest or weed control at 125 g/ha [8, 18]: 100% | pest or weed control at 500 g/ha [8, 18]: 100%
